Measurements: PubChem BioAssay (NCI)
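Grown in 96-well plates, cells were treated for 48 hours with each compound at five concentrations. Insufficient inhibition: endpoint recorded as highest concentration tested. Here, GI50 denotes the concentration required for 50% inhibition of growth. TGI marks complete inhibition of growth.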 Where a SMILES comes first, the peptide text is derived from it. [ ]: non-standard residue; d: D form. The star is where a group is joined. NMeF = CN[CH](Cc1ccccc1)C(=O)O; NMeV = CN[CH](C(=O)O)C(C)C; Boc = CC(C)(C)OC(=O)*

Columns and labels:
Assay in all cases: DTP human tumour cell line panel, 48 h
[1] = system: HOP-62 NSCLC
[2] = system: A549 NSCLC
[3] = system: SR leukemia
[4] = system: COLO 205 colon
[5] = system: IGROV1 ovarian
[6] = system: SNB-19 CNS
[7] = system: HCT-15 colon
[8] = system: MOLT-4 leukemia
[9] = system: UACC-257 melanoma
[10] = system: T-47D breast

SMILES | TGI [1] | TGI [2] | TGI [3] | TGI [4] | TGI [5] | TGI [6] | TGI [7] | TGI [8] | TGI [9] | GI50 [1] | GI50 [10] | TGI [10] | GI50 [2] | GI50 [4] | GI50 [5] | GI50 [6] | GI50 [7] | GI50 [8] | GI50 [9]
Cc1nc(N)sc1C(=O)/C=C\c1ccc2c(c1)OCO2 | > 100 µM | > 100 µM | > 100 µM | > 100 µM | > 100 µM | > 100 µM | > 100 µM | > 100 µM | > 100 µM | – | – | – | – | – | – | – | – | – | –
CCOc1ccccc1NC(=O)CC(C(=O)OC)C(=O)C(=O)OC (stereo not drawn) | > 100 µM | > 100 µM | > 100 µM | > 100 µM | > 100 µM | > 100 µM | > 100 µM | > 100 µM | > 100 µM | – | – | – | – | – | – | – | – | – | –
CC(C)C(NC(=O)OC(C)(C)C)C(=O)N(C)C(Cc1ccccc1)C(=O)N(C)C(C(=O)O)C(C)C (stereo not drawn) (Boc-Val-[NMeF]-[NMeV]-OH; configuration not given here) | > 100 µM | > 100 µM | > 100 µM | > 100 µM | > 100 µM | > 100 µM | > 100 µM | > 100 µM | > 100 µM | – | – | – | – | – | – | – | – | – | –
COc1cc2c(cc1OC)C(CC(=O)NN=C(C)C)NCC2 (stereo not drawn) | > 100 µM | > 100 µM | > 100 µM | > 100 µM | > 100 µM | > 100 µM | > 100 µM | > 100 µM | > 100 µM | – | – | – | – | – | – | – | – | – | –
Cn1c(=O)c(C(c2ccc([N+](=O)[O-])cc2)c2c(O)c3ccccc3n(C)c2=O)cc2ccccc21 (stereo not drawn) | 75.2 µM | > 100 µM | > 100 µM | > 100 µM | > 100 µM | > 100 µM | > 100 µM | > 100 µM | 45.3 µM | – | – | – | – | – | – | – | – | – | –
Cc1cn(C2CC(O)C(CO)O2)c(=O)n2nnnc12 (stereo not drawn) | > 100 µM | > 100 µM | > 100 µM | > 100 µM | > 100 µM | > 100 µM | > 100 µM | > 100 µM | > 100 µM | – | – | – | – | – | – | – | – | – | –
Clc1ccc(C2=Nn3c(COc4ccccc4Cl)nnc3SC2)c(Cl)c1 | 65 µM | > 100 µM | – | 33.5 µM | > 100 µM | > 100 µM | > 100 µM | > 100 µM | 60.9 µM | 24.3 µM | 14 µM | 51.5 µM | 23.6 µM | 14.7 µM | 33.6 µM | 30.4 µM | 54.6 µM | 22.3 µM | 20.8 µM
NC(N)=N/N=C(\c1nc2ccc([N+](=O)[O-])cc2[nH]c1=O)C(O)c1ccc([N+](=O)[O-])cc1 (stereo not drawn) | > 100 µM | > 100 µM | > 100 µM | > 100 µM | > 100 µM | > 100 µM | > 100 µM | > 100 µM | > 100 µM | – | – | – | – | – | – | – | – | – | –
COC1(OC)C2(Cl)C(Cl)=C(Cl)C1(Cl)C1C=CC=CC12 (stereo not drawn) | > 100 µM | > 100 µM | > 100 µM | > 100 µM | > 100 µM | > 100 µM | > 100 µM | – | > 100 µM | – | – | – | – | – | – | – | – | – | –
COc1ccccc1CCc1cc(OC)c(OC)c(OC)c1 | > 100 µM | > 100 µM | – | > 100 µM | > 100 µM | > 100 µM | > 100 µM | 59.9 µM | > 100 µM | – | – | – | – | – | – | – | – | – | –
Cc1cc(Cl)ccc1N=C1NC(=O)C(CC(=O)Nc2ccc([N+](=O)[O-])cc2[N+](=O)[O-])S1 (stereo not drawn) | 85 µM | 85.9 µM | – | > 100 µM | > 100 µM | 73.2 µM | > 100 µM | 55.5 µM | 90.3 µM | – | – | – | – | – | – | – | – | – | –
COc1ccc(C(=O)C(C(=O)CCC(=O)Nc2cccc(Cl)c2)c2ccc(OC)cc2)cc1 (stereo not drawn) | > 100 µM | > 100 µM | > 100 µM | > 100 µM | > 100 µM | > 100 µM | > 100 µM | > 100 µM | > 100 µM | – | – | – | – | – | – | – | – | – | –
Cc1cccc(NC(=O)/C(=N\NC(C)(C)C)C2NC(=S)NC2=O)c1C (stereo not drawn) | > 100 µM | > 100 µM | – | > 100 µM | > 100 µM | > 100 µM | > 100 µM | > 100 µM | > 100 µM | – | – | – | – | – | – | – | – | – | –
COC(=O)C1=C(C)N(NC(=O)OC(C)(C)C)C(=O)C1=P(c1ccccc1)(c1ccccc1)c1ccccc1 | > 100 µM | > 100 µM | > 100 µM | > 100 µM | > 100 µM | > 100 µM | > 100 µM | > 100 µM | > 100 µM | – | – | – | – | – | – | – | – | – | –
CC(C)(C)c1ccc2c(c1)S(=O)(=O)Nc1ccccc1NS(=O)(=O)c1cc(C(C)(C)C)ccc1OCCOCCOCCO2 | > 100 µM | > 100 µM | – | > 100 µM | > 100 µM | > 100 µM | > 100 µM | > 100 µM | > 100 µM | – | – | – | – | – | – | – | – | – | –
CC1(C)SCc2nc3ncccc3n21 | > 100 µM | > 100 µM | – | > 100 µM | > 100 µM | – | > 100 µM | > 100 µM | > 100 µM | – | – | – | – | – | – | – | – | – | –
COC(=O)/C(=N\Nc1nnc(C)n1N)C(C#N)c1ccc(Cl)cc1 (stereo not drawn) | > 100 µM | > 100 µM | – | > 100 µM | > 100 µM | > 100 µM | > 100 µM | – | > 100 µM | – | – | – | – | – | – | – | – | – | –
